Calls of active or inactive are those of the source. The rule behind the calls is not given here.
Tests used:
[1] = tested on: HepG2; experiment: Cytotoxicity against human HepG2 cells after 3 days by MTT assay; format: functional, cell-based; conditions: HepG2, 72 h
[2] = tested on: SK-OV-3; experiment: Cytotoxicity against human SKOV3 cells after 3 days by MTT assay; format: functional, cell-based; conditions: SK-OV-3, 72 h
[3] = tested on: NCI-H460; experiment: Cytotoxicity against human NCI-H460 cells after 3 days by MTT assay; format: functional, cell-based; conditions: NCI-H460, 72 h
[4] = tested on: A549; experiment: Cytotoxicity against human A549 cells after 3 days by MTT assay; format: functional, cell-based; conditions: A549, 72 h
[5] = tested on: A549; experiment: Induction of apoptosis in human A549 cells assessed as necrotic/late apoptotic cells at 25 uM after 12 hrs by Annexin V-propidium iodide staining-based FACS flow cytometric analysis (reference value: 0.4%); format: functional
[6] = tested on: A549; experiment: Induction of apoptosis in human A549 cells assessed as early apoptotic cells at 25 uM after 12 hrs by Annexin V-propidium iodide staining-based FACS flow cytometric analysis (reference value: 0.2%); format: functional
[7] = tested on: A549; experiment: Induction of apoptosis in human A549 cells assessed as necrotic/late apoptotic cells at 20 uM after 12 hrs by Annexin V-propidium iodide staining-based FACS flow cytometric analysis (reference value: 0.4%); format: functional
[8] = tested on: A549; experiment: Induction of apoptosis in human A549 cells assessed as early apoptotic cells at 20 uM after 12 hrs by Annexin V-propidium iodide staining-based FACS flow cytometric analysis (reference value: 0.2%); format: functional
[9] = tested on: A549; experiment: Induction of apoptosis in human A549 cells after 12 hrs by Annexin V-propidium iodide staining-based FACS flow cytometric analysis; format: functional, cell-based
[10] = tested on: A549; experiment: Induction of apoptosis in human A549 cells assessed as DNA ladder formation at 10 to 30 uM by agarose gel electrophoresis; format: functional, cell-based
[11] = tested on: A549; experiment: Induction of apoptosis in human A549 cells assessed as DNA fragmentation at 15 uM after 12 to 24 hrs by TUNEL assay; format: functional, cell-based
[12] = tested on: A549; experiment: Induction of apoptosis in human A549 cells assessed as decrease in mitochondrial membrane potential at 15 uM after 12 to 24 hrs by JC-1 staining-based fluorescence microscopic analysis; format: functional, cell-based
[13] = tested on: A549; experiment: Induction of apoptosis in human A549 cells at 15 uM after 12 to 24 hrs by Hoechst 33258 staining-based fluorescence microscopic analysis; format: functional, cell-based
[14] = tested on: A549; experiment: Cytotoxicity against human A549 cells assessed as necrotic cells at 15 uM after 12 to 24 hrs by AO/EB staining-based fluorescence microscopic analysis; format: cell-based; conditions: a549, 15 µM
[15] = tested on: A549; experiment: Induction of apoptosis in human A549 cells assessed as cell budding at 15 uM after 12 to 24 hrs by AO/EB staining-based fluorescence microscopic analysis; format: functional
[16] = tested on: A549; experiment: Induction of apoptosis in human A549 cells assessed as membrane blebbing at 15 uM after 12 to 24 hrs by AO/EB staining-based fluorescence microscopic analysis; format: functional, cell-based
[17] = tested on: A549; experiment: Induction of apoptosis in human A549 cells assessed as pycnosis at 15 uM after 12 to 24 hrs by AO/EB staining-based fluorescence microscopic analysis; format: functional, cell-based

| SMILES | IC50 [1] [µM] | IC50 [2] [µM] | IC50 [3] [µM] | IC50 [4] [µM] | also measured |
| --- | --- | --- | --- | --- | --- |
| CCOP(=O)(OCC)C(NC(=S)NC(=O)[C@]1(C)CCC[C@]2(C)c3ccc(C(C)C)cc3C(=O)C[C@@H]12)c1ccc(Cl)cc1 (stereo not given in full) | 39.5 | 31.4 | 41.2 | 30.3 |  |
| CCOP(=O)(OCC)C(NC(=S)NC(=O)[C@]1(C)CCC[C@]2(C)c3ccc(C(C)C)cc3C(=O)C[C@@H]12)c1cccc(Cl)c1 (stereo not given in full) | > 50 | > 50 | > 50 | 44.1 |  |
| CCOP(=O)(OCC)C(NC(=S)NC(=O)[C@]1(C)CCC[C@]2(C)c3ccc(C(C)C)cc3C(=O)C[C@@H]12)c1ccccc1OC (stereo not given in full) | > 50 | 23.6 | 29.5 | 19.9 |  |
| CCOP(=O)(OCC)C(NC(=S)NC(=O)[C@]1(C)CCC[C@]2(C)c3ccc(C(C)C)cc3C(=O)C[C@@H]12)c1cccc(OC)c1 (stereo not given in full) | 15.8 | 8.41 | 11.5 | 14.1 |  |
| CCOP(=O)(OCC)C(NC(=S)NC(=O)[C@]1(C)CCC[C@]2(C)c3ccc(C(C)C)cc3C(=O)C[C@@H]12)c1ccccc1 (stereo not given in full) | 46.8 | 42.5 | 21.1 | 21.6 |  |
| CCOP(=O)(OCC)C(NC(=S)NC(=O)[C@]1(C)CCC[C@]2(C)c3ccc(C(C)C)cc3C(=O)C[C@@H]12)c1ccccc1Cl (stereo not given in full) | 39.9 | 27.9 | 36.1 | 22.5 |  |
| CCOP(=O)(OCC)C(NC(=S)NC(=O)[C@]1(C)CCC[C@]2(C)c3ccc(C(C)C)cc3/C(=N\O)C[C@@H]12)c1ccc(F)cc1 (stereo not given in full) | 13.1 | 11.4 | 17.7 | 7 | Activity [5]: 17.7%; Activity [6]: 34%; Activity [7]: 5.3%; Activity [8]: 14.4%; Activity [9]: Dose-dependent effect; Activity [10]: Active; Activity [11]: Active; Activity [12]: Active; Activity [13]: Active; Activity [14]: Non-toxic; Activity [15]: Active; Activity [16]: Active; Activity [17]: Active |
| CCOP(=O)(OCC)C(NC(=S)NC(=O)[C@]1(C)CCC[C@]2(C)c3ccc(C(C)C)cc3/C(=N\O)C[C@@H]12)c1cccc(F)c1 (stereo not given in full) | 17.5 | 25.2 | 13.3 | 28.9 |  |
| CCOP(=O)(OCC)C(NC(=S)NC(=O)[C@]1(C)CCC[C@]2(C)c3ccc(C(C)C)cc3C(=O)C[C@@H]12)c1cccc(F)c1 (stereo not given in full) | 37.1 | > 50 | 39.8 | 33 |  |
| CCOP(=O)(OCC)C(NC(=S)NC(=O)[C@]1(C)CCC[C@]2(C)c3ccc(C(C)C)cc3C(=O)C[C@@H]12)c1cccc(C)c1 (stereo not given in full) | > 50 | > 50 | 42.7 | 37.1 |  |
| CCOP(=O)(OCC)C(NC(=S)NC(=O)[C@]1(C)CCC[C@]2(C)c3ccc(C(C)C)cc3C(=O)C[C@@H]12)c1cccc(Br)c1 (stereo not given in full) | > 50 | 49.1 | 41.5 | 42.5 |  |
| CCOP(=O)(OCC)C(NC(=S)NC(=O)[C@]1(C)CCC[C@]2(C)c3ccc(C(C)C)cc3/C(=N\O)C[C@@H]12)c1cccc(Cl)c1 (stereo not given in full) | 13.2 | 12.3 | 28.4 | 19 |  |
| CCOP(=O)(OCC)C(NC(=S)NC(=O)[C@]1(C)CCC[C@]2(C)c3ccc(C(C)C)cc3C(=O)C[C@@H]12)c1cccc2ccccc12 (stereo not given in full) | > 50 | 27.3 | > 50 | 32.6 |  |
| CCOP(=O)(OCC)C(NC(=S)NC(=O)[C@]1(C)CCC[C@]2(C)c3ccc(C(C)C)cc3C(=O)C[C@@H]12)c1ccc2ccccc2c1 (stereo not given in full) | 25.2 | 24.6 | 19.8 | 23.2 |  |
| CCOP(=O)(OCC)C(NC(=S)NC(=O)[C@]1(C)CCC[C@]2(C)c3ccc(C(C)C)cc3/C(=N\O)C[C@@H]12)c1ccc(C)cc1 (stereo not given in full) | 10.9 | 8.95 | 22.4 | 17.9 |  |
| CCOP(=O)(OCC)C(NC(=S)NC(=O)[C@]1(C)CCC[C@]2(C)c3ccc(C(C)C)cc3C(=O)C[C@@H]12)c1ccc(Br)cc1 (stereo not given in full) | > 50 | 36.9 | 27.9 | 49.6 |  |
| CCOP(=O)(OCC)C(NC(=S)NC(=O)[C@]1(C)CCC[C@]2(C)c3ccc(C(C)C)cc3/C(=N\O)C[C@@H]12)c1cccc2ccccc12 (stereo not given in full) | 27.9 | 40.1 | 37.1 | 28 |  |

| SMILES | IC50 [1] [µM] | IC50 [2] [µM] | IC50 [3] [µM] | IC50 [4] [µM] | also measured |
| --- | --- | --- | --- | --- | --- |
| CCOP(=O)(OCC)C(NC(=S)NC(=O)[C@]1(C)CCC[C@]2(C)c3ccc(C(C)C)cc3/C(=N\O)C[C@@H]12)c1ccccc1Cl (stereo not given in full) | > 50 | 40.2 | 29.1 | 32.8 |  |
| CCOP(=O)(OCC)C(NC(=S)NC(=O)[C@]1(C)CCC[C@]2(C)c3ccc(C(C)C)cc3/C(=N\O)C[C@@H]12)c1ccc(Cl)cc1 (stereo not given in full) | 21.4 | 16.6 | 23.8 | 9.66 |  |
| CCOP(=O)(OCC)C(NC(=S)NC(=O)[C@]1(C)CCC[C@]2(C)c3ccc(C(C)C)cc3C(=O)C[C@@H]12)c1ccc(F)cc1 (stereo not given in full) | 45.4 | 30.2 | 22.4 | 17.4 |  |
| CCOP(=O)(OCC)C(NC(=S)NC(=O)[C@]1(C)CCC[C@]2(C)c3ccc(C(C)C)cc3C(=O)C[C@@H]12)c1ccc(OC)cc1 (stereo not given in full) | > 50 | 49.9 | 24.5 | 26.1 |  |
| CCOP(=O)(OCC)C(NC(=S)NC(=O)[C@]1(C)CCC[C@]2(C)c3ccc(C(C)C)cc3/C(=N\O)C[C@@H]12)c1ccccc1OC (stereo not given in full) | 8.62 | 17.9 | 18.6 | 27.1 |  |
| CCOP(=O)(OCC)C(NC(=S)NC(=O)[C@]1(C)CCC[C@]2(C)c3ccc(C(C)C)cc3/C(=N\O)C[C@@H]12)c1ccccc1F (stereo not given in full) | 9.73 | 19.9 | 19.3 | 9.16 |  |
| CCOP(=O)(OCC)C(NC(=S)NC(=O)[C@]1(C)CCC[C@]2(C)c3ccc(C(C)C)cc3C(=O)C[C@@H]12)c1ccc(C)cc1 (stereo not given in full) | 15.2 | 11.8 | 24.8 | 22.2 |  |
| CC(C)c1ccc2c(c1)CC[C@H]1[C@](C)(C(=O)O)CCC[C@]21C [DEHYDROABIETIC ACID] | 85 | 84 | 84.5 | 79.5 |  |
| CCOP(=O)(OCC)C(NC(=S)NC(=O)[C@]1(C)CCC[C@]2(C)c3ccc(C(C)C)cc3/C(=N\O)C[C@@H]12)c1ccccc1 (stereo not given in full) | 27.2 | 22.1 | 36.7 | 27 |  |
| CCOP(=O)(OCC)C(NC(=S)NC(=O)[C@]1(C)CCC[C@]2(C)c3ccc(C(C)C)cc3/C(=N\O)C[C@@H]12)c1cccc(C)c1 (stereo not given in full) | 12.5 | 28.6 | 37.9 | 12.9 |  |
| CCOP(=O)(OCC)C(NC(=S)NC(=O)[C@]1(C)CCC[C@]2(C)c3ccc(C(C)C)cc3/C(=N\O)C[C@@H]12)c1ccc(Br)cc1 (stereo not given in full) | 26.9 | 12.7 | 22.6 | 19 |  |
| O=c1[nH]cc(F)c(=O)[nH]1 [FLUOROURACIL] | 30 | 24.4 | 44 | 34.3 |  |
| CCOP(=O)(OCC)C(NC(=S)NC(=O)[C@]1(C)CCC[C@]2(C)c3ccc(C(C)C)cc3/C(=N\O)C[C@@H]12)c1ccc2ccccc2c1 (stereo not given in full) | 20.9 | 40.6 | 26.8 | > 50 |  |
| CCOP(=O)(OCC)C(NC(=S)NC(=O)[C@]1(C)CCC[C@]2(C)c3ccc(C(C)C)cc3C(=O)C[C@@H]12)c1ccccc1F (stereo not given in full) | 49.3 | 45.1 | 36.4 | > 50 |  |
| CCOP(=O)(OCC)C(NC(=S)NC(=O)[C@]1(C)CCC[C@]2(C)c3ccc(C(C)C)cc3/C(=N\O)C[C@@H]12)c1cccc(Br)c1 (stereo not given in full) | 42.8 | 37.7 | 30.2 | 34.7 |  |
| CCOP(=O)(OCC)C(NC(=S)NC(=O)[C@]1(C)CCC[C@]2(C)c3ccc(C(C)C)cc3/C(=N\O)C[C@@H]12)c1ccc(OC)cc1 (stereo not given in full) | 17 | 30.8 | 38.5 | 23.6 |  |

Reference: ChEMBL document CHEMBL2434931, “Synthesis and antitumor activities of novel thiourea α-aminophosphonates from dehydroabietic acid” (Eur J Med Chem, 2013)
